Patent US20040171640A1, “Substituted 1-phenethylpiperidine compounds used as inter alia analgesics” (priority 2001, published 2004)

Tests used:
[1] = test system: tail flick (pain latency) in mice; test: Analgesic testing by tail flick test in mice; assay type: in vivo; conditions: Mus musculus, read-out: Antinociceptive action in % relative to control group; for inhibition in vivo at 1 mg/kg: 1 mg/kg intravenous
Description: 2.) Analgesic Testing by Tail Flick Test in Mice
The mice were each individually put in a test cage and the base of the tail was exposed to the focused heat flux from an electric lamp (tail flick type 50/08/1.bc, Labtec, Dr. Hess). The lamp intensity was so set that the time from switching on of the lamp until sudden flicking away of the tail (pain latency) in untreated mice amounted to 3 to 5 seconds. Prior to administration of the solutions containing the compound according to the invention or the respective comparison solutions, the mice were pre-tested twice within five minutes and the average value of these measurements was calculated as a pre-test average value.
The solutions of the compound according to the invention of the general formula I and the comparison solutions were then administered intravenously. Pain was measured in each case 10, 20, 40 and 60 minutes after intravenous administration. The analgesic action was determined as an increase in pain latency (% of the maximum possible antinociceptive effect) in accordance with the following formula: […]
In this formula, the time T0 is the latency time prior to administration, the time T1 is the latency time after administration of active ingredient combination and the time T2 is the maximum exposure period (12 seconds)
2.) Analgesic Testing by Tail Flick Test in Mice:
The in-depth investigation into analgesic efficacy was performed using the tail flick test in mice, as described above.

[2] = test system: phenylquinone-induced writhing in mice; test: Analgesic testing by phenylquinone-induced writhing test in mice; assay type: in vivo, male NMRI mice; conditions: Mus musculus, read-out: Antinociceptive action in % relative to control group; for inhibition in vivo at 10 mg/kg: 10 mg/kg intravenous
Description: 1.) Analgesic Testing by Writhing Test in Mice
The investigation into analgesic efficacy was performed by phenylquinone-induced writhing in mice (modified after: I. C. Hendershot J. Forsaith, J. Pharmacol. Exp. There. 125, 237-240 (1959)). The corresponding literature description is hereby introduced as a reference and is deemed to be part of the disclosure.
Male NMRI mice weighing from 25 to 30 g were used for this purpose. Groups of 10 animals per substance dose received, 10 minutes after intravenous administration of the compounds tested, 0.3 ml/mouse of a 0.02% aqueous solution of phenylquinone (phenylbenzoquinone, Sigma, Deisenhofen; solution prepared with addition of 5% of ethanol and stored in a water bath at 45° C.) administered intraperitoneally. The animals were placed individually in observation cages. A push button counter was used to record the number of pain-induced stretching movements (writhing reactions=straightening of the torso with stretching of the rear extremities) for 5-20 minutes after phenylquinone administration. The control was provided by animals who received only physiological common salt solution.
The compounds were tested at the standard dosage of 10 mg/kg. Inhibition of the writhing reactions by a substance was calculated according to the following formula: [formula]
1.) Analgesic Testing by Writhing Test in Mice:
The in-depth investigation into analgesic efficacy was performed using phenylquinone-induced writhing in mice, as described above.

SMILES | inhibition in vivo at 10 mg/kg [2] [%] | inhibition in vivo at 1 mg/kg [1] [%] | also measured
O=C(CC1CCN(CCc2ccccc2)CC1)Nc1ccccc1 [Example 1, 2-(1-Phenethyl-piperidin-4-yl)-N-phenylacetamide] |  |  | inhibition in vivo at 0.1 mg/kg ([1]; 0.1 mg/kg intravenous): 56%
O=C(C=C1CCN(CCc2ccccc2)CC1)Nc1ccccc1 [Example 3, 2-(1-Phenethyl-piperidine-4-ylidene)-N-phenylacetamide] | 69 |  | 
COc1ccccc1NC(=O)CC1CCN(CCc2ccccc2)CC1 [Example 4, N-(2-Methoxyphenyl)-2-(1-phenethylpiperidin-4-yl)-acetamide] | 100 |  | 
COc1ccc(NC(=O)CC2CCN(CCc3ccccc3)CC2)cc1 [Example 5, N-(4-Methoxyphenyl)-2-(1-phenethyl-piperidin-4-yl)-acetamide] | 100 |  | 
O=C(CC1CCN(CCc2ccccc2)CC1)Nc1ccccc1OC(F)(F)F [Example 6, 2-(1-Phenethyl-piperidin-4-yl)-N-(2-trifluoromethoxy-phenyl)acetamide] | 99 |  | 
COc1ccc(NCCC2CCN(CCc3ccccc3)CC2)cc1 [Example 7, (4-Methoxyphenyl)-[2-(1-phenethylpiperidin-4-yl)ethyl]amine] | 100 |  | 
Oc1ccccc1NCCC1CCN(CCc2ccccc2)CC1 [Example 8, 2-[2-(1-Phenethylpiperidin-4-yl)ethylamino]phenol] | 100 |  | 
COc1cccc(NC(=O)CC2CCN(CCc3ccccc3)CC2)c1 [Example 9, N-(3-Methoxyphenyl)-2-(1-phenethyl-piperidin-4-yl)acetamide] |  |  | inhibition in vivo at 1 mg/kg ([2]; 1 mg/kg intravenous): 56%
COc1ccc(NC(=O)CC2CCN(CCc3ccccc3)CC2)cc1Cl [Example 10, N-(3-Chloro-4-methoxyphenyl)-2-(1-phenethylpiperidin-4-yl)acetamide] | 100 |  | 
O=C(CC1CCN(CCc2ccccc2)CC1)Nc1ccc(Cl)cc1F [Example 11, N-(4-Chloro-2-fluorophenyl)-2-(1-phenethylpiperidin-4-yl)acetamide] | 100 |  | 
O=C(CC1CCN(CCc2ccccc2)CC1)Nc1cccc(C(F)(F)F)c1 [Example 12, 2-(1-Phenethylpiperidin-4-yl)-N-(3-trifluoromethyl-phenyl)acetamide] |  | 21 | 
FC(F)(F)c1cccc(NCCC2CCN(CCc3ccccc3)CC2)c1 [Example 13, [2-(1-Phenethyl-piperidin-4-yl)ethyl]-(3-trifluoromethyl-phenyl)amine] |  | 31 | 
COc1cccc(NCCC2CCN(CCc3ccccc3)CC2)c1 [Example 14, (3-Methoxyphenyl)-[2-(1-phenethylpiperidin-4-yl)ethyl]amine] | 100 |  | 
Oc1ccc(NCCC2CCN(CCc3ccccc3)CC2)cc1 [Example 15, 4-[2-(1-Phenethylpiperidin-4-yl)ethylamino]phenol] | 100 |  | 
Fc1cc(Cl)ccc1NCCC1CCN(CCc2ccccc2)CC1 [Example 16, (4-Chloro-2-fluorophenyl)-[2-(1-phenethylpiperidin-4-yl)ethyl]amine] | 80 |  | inhibition in vivo at 10 mg/kg ([1]; 10 mg/kg intravenous): 31%
Oc1cccc(NCCC2CCN(CCc3ccccc3)CC2)c1 [Example 17, 3-[2-(1-Phenethylpiperidin-4-yl)ethylamino]phenol] | 100 |  | 
COc1ccc(N(CCC2CCN(CCc3ccccc3)CC2)C(C)=O)cc1Cl [Example 18, N-(3-Chloro-4-methoxyphenyl)-N-[2-(1-phenethylpiperidin-4-yl)ethyl]acetamide] | 100 |  | 
CCC(=O)N(CCC1CCN(CCc2ccccc2)CC1)c1ccc(OC)c(Cl)c1 [Example 19, N-(3-Chloro-4-methoxyphenyl)-N-[2-(1-phenethylpiperidin-4-yl)ethyl]propionamide] | 100 | 35 | 
COc1ccc(N(CCC2CCN(CCc3ccccc3)CC2)C(=O)c2ccccc2)cc1Cl [Example 20, N-(3-Chloro-4-methoxyphenyl)-N-[2-(1-phenethylpiperidin-4-yl)ethyl]benzamide] | 88 | 23 | 
CC(=O)N(CCC1CCN(CCc2ccccc2)CC1)c1cccc(C(F)(F)F)c1 [Example 21, N-[2-(1-Phenethylpiperidin-4-yl)ethyl]-N-(3-trifluoromethylphenyl)acetamide] | 100 | 34 | 
CC(=O)N(CCC1CCN(CCc2ccccc2)CC1)c1ccccc1 [Example 22, N-[2-(1-Phenethylpiperidin-4-yl)ethyl]-N-phenylacetamide] |  | 24 | 
CCC(=O)N(CCC1CCN(CCc2ccccc2)CC1)c1ccccc1 [Example 23, N-[2-(1-Phenethylpiperidin-4-yl)ethyl]-N-phenylpropionamide] | 99 |  | 
O=C(c1ccccc1)N(CCC1CCN(CCc2ccccc2)CC1)c1ccccc1 [Example 24, N-[2-(1-Phenethylpiperidin-4-yl)ethyl]-N-phenylbenzamide] | 100 | 24 | 
